Laboratory results as given in ChEMBL document CHEMBL4715763, “A simple, one pot synthesis of furo[3,2-c]chromenes and evaluation of antimicrobial activity” (2016).
≈ marks a conversion by molar mass, not a printed value. Calls of active or inactive are those of the source. The calls are words filed in the database; no cut-off is given here.

Key:
Assay type in all cases: functional
Micrococcus luteus [1] = test: Bactericidal activity against Micrococcus luteus MTCC 2470 assessed as bacterial killing after 24 hrs incubation by NCCLS protocol-based broth microdilution method
Pseudomonas aeruginosa = test: Antimicrobial activity against Pseudomonas aeruginosa MTCC 2453 assessed as inhibition zone measured after 24 hrs incubation by well diffusion method
Raoultella planticola [2] = test: Antimicrobial activity against Klebsiella planticola MTCC 530 assessed as inhibition zone measured after 24 hrs incubation by well diffusion method
Staphylococcus aureus [3] = test: Antimicrobial activity against Staphylococcus aureus MTCC 96 assessed as inhibition zone measured after 24 hrs incubation by well diffusion method
Bacillus subtilis [4] = test: Bactericidal activity against Bacillus subtilis MTCC 121 assessed as bacterial killing after 24 hrs incubation by NCCLS protocol-based broth microdilution method
Staphylococcus aureus [5] = test: Antimicrobial activity against Staphylococcus aureus MLS-16 MTCC 2940 assessed as inhibition zone measured after 24 hrs incubation by well diffusion method
Escherichia coli [6] = test: Bactericidal activity against Escherichia coli MTCC 739 assessed as bacterial killing after 24 hrs incubation by NCCLS protocol-based broth microdilution method
Raoultella planticola [7] = test: Bactericidal activity against Klebsiella planticola MTCC 530 assessed as bacterial killing after 24 hrs incubation by NCCLS protocol-based broth microdilution method
Bacillus subtilis [8] = test: Antimicrobial activity against Bacillus subtilis MTCC 121 assessed as inhibition zone measured after 24 hrs incubation by well diffusion method
Escherichia coli [9] = test: Antimicrobial activity against Escherichia coli MTCC 739 assessed as inhibition zone measured after 24 hrs incubation by well diffusion method
Micrococcus luteus [10] = test: Antimicrobial activity against Micrococcus luteus MTCC 2470 assessed as inhibition zone measured after 24 hrs incubation by well diffusion method
Candida albicans = test: Antimicrobial activity against Candida albicans MTCC 3017 assessed as inhibition zone measured after 24 hrs incubation by well diffusion method

Row | Structure (SMILES) | MBC (Micrococcus luteus [1]) [µg/mL] | MIC (Pseudomonas aeruginosa) | MIC (Raoultella planticola [2]) | MIC (Staphylococcus aureus [3]) | MBC (Bacillus subtilis [4]) | MIC (Staphylococcus aureus [5]) | MBC (Escherichia coli [6]) | MBC (Raoultella planticola [7]) [µg/mL] | MIC (Bacillus subtilis [8]) | MIC (Escherichia coli [9]) | MIC (Micrococcus luteus [10]) | MIC (Candida albicans) [µg/mL]
1 | O=C(O)c1cn(C2CC2)c2cc(N3CCNCC3)c(F)cc2c1=O [CIPROFLOXACIN] | 1.17 (≈ 3.53 µM) | 0.9 µg/mL (≈ 2.72 µM) | 0.9 µg/mL (≈ 2.72 µM) | 0.9 µg/mL (≈ 2.72 µM) | 1.17 µg/mL (≈ 3.53 µM) | 0.9 µg/mL (≈ 2.72 µM) | 1.17 µg/mL (≈ 3.53 µM) | 1.17 (≈ 3.53 µM) | 0.9 µg/mL (≈ 2.72 µM) | 0.9 µg/mL (≈ 2.72 µM) | 0.9 µg/mL (≈ 2.72 µM) | 
2 | COC(=O)C1(C#N)Oc2c(c(=O)oc3ccccc23)C1c1ccc(Cl)cc1Cl (stereo unspecified) |  | > 250 µg/mL | > 250 µg/mL | > 250 µg/mL |  | > 250 µg/mL |  |  | > 250 µg/mL | > 250 µg/mL | > 250 µg/mL | > 250
3 | CC(C)OC(=O)C1(C#N)Oc2c(c(=O)oc3ccccc23)C1c1ccccc1 (stereo unspecified) | 62.5 (≈ 166 µM) | > 250 µg/mL | 15.6 µg/mL (≈ 41.6 µM) | 125 µg/mL (≈ 333 µM) | inactive | 125 µg/mL (≈ 333 µM) | inactive | 62.5 (≈ 166 µM) | 250 µg/mL (≈ 666 µM) | > 250 µg/mL | 15.6 µg/mL (≈ 41.6 µM) | > 250
4 | CCOC(=O)C1(C#N)Oc2c(c(=O)oc3ccccc23)C1c1cccc2ccccc12 (stereo unspecified) |  | > 250 µg/mL | > 250 µg/mL | > 250 µg/mL |  | > 250 µg/mL |  |  | > 250 µg/mL | > 250 µg/mL | > 250 µg/mL | > 250
5 | CCOC(=O)C1(C#N)Oc2c(c(=O)oc3ccc(C)cc23)C1c1ccccc1 (stereo unspecified) |  | > 250 µg/mL | 250 µg/mL (≈ 666 µM) | > 250 µg/mL |  | > 250 µg/mL |  |  | > 250 µg/mL | > 250 µg/mL | > 250 µg/mL | > 250
6 | COC(=O)C1(C#N)Oc2c(c(=O)oc3ccccc23)C1c1ccc(Br)cc1 (stereo unspecified) |  | > 250 µg/mL | > 250 µg/mL | > 250 µg/mL |  | > 250 µg/mL |  |  | > 250 µg/mL | 12.5 µg/mL (≈ 29.3 µM) | > 250 µg/mL | > 250
7 | COC(=O)C1(C#N)Oc2c(c(=O)oc3ccccc23)C1c1ccc([N+](=O)[O-])cc1 (stereo unspecified) |  | > 250 µg/mL | > 250 µg/mL | > 250 µg/mL |  | > 250 µg/mL |  |  | > 250 µg/mL | > 250 µg/mL | > 250 µg/mL | > 250
8 | COC(=O)C1(C#N)Oc2c(c(=O)oc3ccccc23)C1c1ccc(C#N)cc1 (stereo unspecified) |  | > 250 µg/mL | > 250 µg/mL | > 250 µg/mL |  | > 250 µg/mL |  |  | > 250 µg/mL | > 250 µg/mL | > 250 µg/mL | > 250
9 | COC(=O)C1(C#N)Oc2c(c(=O)oc3ccccc23)C1c1ccc(F)cc1 (stereo unspecified) | 62.5 (≈ 171 µM) | > 250 µg/mL | 7.8 µg/mL (≈ 21.4 µM) | 62.5 µg/mL (≈ 171 µM) | 62.5 µg/mL (≈ 171 µM) | 62.5 µg/mL (≈ 171 µM) | 62.5 µg/mL (≈ 171 µM) | 62.5 (≈ 171 µM) | 7.8 µg/mL (≈ 21.4 µM) | 15.6 µg/mL (≈ 42.7 µM) | 7.8 µg/mL (≈ 21.4 µM) | 62.5 (≈ 171 µM)
10 | COC(=O)C1(C#N)Oc2c(c(=O)oc3ccccc23)C1c1ccccc1 (stereo unspecified) |  | > 250 µg/mL | > 250 µg/mL | > 250 µg/mL |  | > 250 µg/mL |  |  | 62.5 µg/mL (≈ 180 µM) | > 250 µg/mL | > 250 µg/mL | > 250
11 | COC(=O)C1(C#N)Oc2c(c(=O)oc3ccccc23)C1c1ccc(C(F)(F)F)cc1 (stereo unspecified) |  | > 250 µg/mL | > 250 µg/mL | > 250 µg/mL |  | > 250 µg/mL |  |  | > 250 µg/mL | > 250 µg/mL | > 250 µg/mL | > 250
12 | COC(=O)C1(C#N)Oc2c(c(=O)oc3ccccc23)C1c1ccc(O)cc1 (stereo unspecified) |  | > 250 µg/mL | > 250 µg/mL | > 250 µg/mL |  | > 250 µg/mL |  |  | > 250 µg/mL | > 250 µg/mL | > 250 µg/mL | > 250
13 | CCOC(=O)C1(C#N)Oc2c(c(=O)oc3ccccc23)C1c1ccc(C(F)(F)F)cc1 (stereo unspecified) |  | > 250 µg/mL | 250 µg/mL (≈ 582 µM) | > 250 µg/mL |  | > 250 µg/mL |  |  | 250 µg/mL (≈ 582 µM) | > 250 µg/mL | > 250 µg/mL | > 250
14 | Clc1ccc(COC(Cn2ccnc2)c2ccc(Cl)cc2Cl)c(Cl)c1 (stereo unspecified) [MICONAZOLE] |  | inactive | inactive | inactive |  | inactive |  |  | inactive | inactive | inactive | 7.8 (≈ 18.7 µM)
15 | CCOC(=O)C1(C#N)Oc2c(c(=O)oc3ccccc23)C1c1ccc([N+](=O)[O-])cc1 (stereo unspecified) |  | > 250 µg/mL | > 250 µg/mL | > 250 µg/mL |  | > 250 µg/mL |  |  | > 250 µg/mL | > 250 µg/mL | > 250 µg/mL | > 250
16 | COC(=O)C1(C#N)Oc2c(c(=O)oc3ccc(C)cc23)C1c1ccccc1 (stereo unspecified) |  | > 250 µg/mL | > 250 µg/mL | > 250 µg/mL |  | > 250 µg/mL |  |  | > 250 µg/mL | > 250 µg/mL | > 250 µg/mL | > 250
17 | COC(=O)C1(C#N)Oc2c(c(=O)oc3ccccc23)C1c1ccc(C)cc1 (stereo unspecified) |  | > 250 µg/mL | > 250 µg/mL | > 250 µg/mL |  | > 250 µg/mL |  |  | > 250 µg/mL | > 250 µg/mL | 125 µg/mL (≈ 346 µM) | > 250
18 | COC(=O)C1(C#N)Oc2c(c(=O)oc3ccccc23)C1c1ccc(Cl)cc1 (stereo unspecified) |  | > 250 µg/mL | > 250 µg/mL | > 250 µg/mL |  | > 250 µg/mL |  |  | > 250 µg/mL | 62.5 µg/mL (≈ 164 µM) | > 250 µg/mL | > 250
19 | COC(=O)C1(C#N)Oc2c(c(=O)oc3ccccc23)C1c1cc(OC)c(OC)c(OC)c1 (stereo unspecified) |  | > 250 µg/mL | > 250 µg/mL | 62.5 µg/mL (≈ 143 µM) |  | > 250 µg/mL |  |  | > 250 µg/mL | > 250 µg/mL | > 250 µg/mL | > 250
20 | CCOC(=O)C1(C#N)Oc2c(c(=O)oc3ccccc23)C1c1ccccc1 (stereo unspecified) |  | > 250 µg/mL | > 250 µg/mL | > 250 µg/mL |  | > 250 µg/mL |  |  | > 250 µg/mL | > 250 µg/mL | > 250 µg/mL | > 250
